Reference: ChEMBL document CHEMBL1156829 (Proc Natl Acad Sci U S A, 2008)

Experiments:
Plasmodium falciparum [1] = test: NOVARTIS: Inhibition of Plasmodium falciparum W2 (drug-resistant) proliferation in erythrocyte-based infection assay; type: functional, organism-based; settings: Plasmodium falciparum, W2; read-out: EC50
[2] = NOVARTIS: Cytotoxicity against human hepatocellular carcinoma cell line (Huh7); type: toxicity, cell-based, Huh-7; settings: Huh7 cells (hepatocellular carcinoma cell line)
Plasmodium falciparum [3] = test: NOVARTIS: Inhibition of Plasmodium falciparum 3D7 (drug-susceptible) proliferation in erythrocyte-based infection assay; type: functional, organism-based; settings: Plasmodium falciparum, 3D7

Row | Structure (SMILES) | EC50 (Plasmodium falciparum [1]) | CC50 [2] | EC50 (Plasmodium falciparum [3])
1 | O=C(NCCCCNc1ccnc2cc(Cl)ccc12)c1ccco1 | 1400 nM | > 13100 nM | 723 nM
2 | COC(=O)c1[nH]c2ccc(Cl)cc2c1NC(=O)C(C)N1CCN(C2CCCCC2)CC1 (stereo not given) | > 12500 nM | > 100000 nM | 7740 nM
3 | COc1ccc(C2C(C(=O)O)c3ccccc3C(=O)N2c2ccc(C)cc2)cc1OC (stereo not given) | > 1250 nM | > 10000 nM | > 1080 nM
4 | COC(=O)C1=C(C)NC(=Cc2cc(C)n(-c3cc(C)ccc3OC)c2C)C1=O | 70.4 nM | > 100000 nM | 34.8 nM
5 | O=C1/C(=C\c2ccccc2)SC(=Nc2ccccc2)N1C1CCCCC1 | 545 nM | > 100000 nM | 348 nM
6 | S=P(OCC1C(COP(=S)(c2ccccc2)c2ccccc2)C1(Cl)Cl)(c1ccccc1)c1ccccc1 (stereo not given) | 484 nM | > 100000 nM | 385 nM
7 | c1cncc(CCNc2nccn3c(-c4ccc5ccccc5c4)cnc23)c1 | 81.2 nM | 34400 nM | 115 nM
8 | O=S(=O)(/C=C/c1ccccc1)NCCCCNc1ccnc2cc(Cl)ccc12 | 397 nM | 1480 nM | 405 nM
9 | Cc1ccc(-c2c3c4n(c(-c5ccc(Cl)cc5)cn4c2C(=O)Nc2ccccc2Cl)CCCC3)cc1 | 1160 nM | > 100000 nM | 269 nM
10 | CCCN(Cc1cc(OC)c2c(c1)OCO2)CC1CC1 | 566 nM | > 10000 nM | > 1720 nM
11 | O=C1C=CC(=O)N1c1ccc(Sc2ccc(N3C(=O)C=CC3=O)cc2)cc1 | > 1250 nM | > 10000 nM | > 814 nM
12 | Fc1ccc(CN2CCc3nc(N4CCCCC4)sc3C2)cc1F | 1070 nM | > 100000 nM | 1100 nM
13 | Cc1ccc(-n2c(=S)sc3c(=O)n(-c4ccccc4)c(SCC(=O)c4ccccc4)nc32)cc1C | 1790 nM | > 10000 nM | > 1250 nM
14 | CCOC(=O)C1=C(C)N=c2sc(=Cc3ccccc3OCc3ccccc3)c(=O)n2C1c1ccccc1OC(C)C (stereo not given) | > 12500 nM | > 100000 nM | 9730 nM
15 | CCCN1CCC(NC2CCCc3c2[nH]c2ccc([N+](=O)[O-])cc32)CC1 (stereo not given) | 3630 nM | 28000 nM | 1160 nM
16 | Cc1ccccc1C(=O)N1CCC(n2nccc2NC(=O)CCOc2ccccc2)CC1 | 4450 nM | > 100000 nM | > 12500 nM
17 | CC(C)CCNCC(O)Cn1c2ccccc2c2ccccc21 (stereo not given) | 32.3 nM | 8060 nM | 201 nM
18 | COCCNC(=O)CN1C(=O)CC(C)(C)Sc2ccccc21 | > 19.8 nM | > 10000 nM | > 1250 nM
19 | CCOC(=O)C1=C(C)NC2=C(C(=O)C(C(=O)OCC)C(c3cccc(OC)c3)C2)C1c1ccc(Br)cc1 (stereo not given) | 671 nM | > 100000 nM | 2170 nM
20 | CCOC(=O)C1=C(CC)NC2=C(C(=O)CC(C)(C)C2)C1c1ccc(Br)cc1 (stereo not given) | 44.1 nM | > 100000 nM | 408 nM
21 | Cc1oc2c(c1C(=O)N1CCN(C)CC1)C(=O)c1ccccc1C2=O | 335 nM | 5460 nM | 829 nM
22 | Cc1cccc(Nc2nc3nonc3[nH]c2=NN=Cc2cccs2)c1C | 4300 nM | 23300 nM | 8650 nM
23 | CC[C@H]1CN2CC[C@@H]1C[C@@H]2[C@@H](O)c1ccnc2ccc(OC)cc12 | 57.9 nM | > 10000 nM | 31.8 nM
24 | CCC(=O)NC(c1cccc([N+](=O)[O-])c1)c1ccc2cccnc2c1O (stereo not given) | 2600 nM | > 100000 nM | 3420 nM

Row | Structure (SMILES) | EC50 (Plasmodium falciparum [1]) | CC50 [2] | EC50 (Plasmodium falciparum [3])
25 | COc1ccc(C2=C(c3ccc(OC)cc3)C3C(=O)C2C2C(=O)N(c4cccc5ccccc45)C(=O)C32)cc1 (stereo not given) | > 1510 nM | > 10000 nM | > 1090 nM
26 | O=C(CN1CCC(NC(=O)c2cccc(F)c2)CC1)NC1CC1 | 26.7 nM | > 10000 nM | > 1250 nM
27 | CC1CCCCN1CCCNc1ncc(C(=O)NCCc2ccccc2)c(NCC2CCCCC2)n1 (stereo not given) | 1200 nM | > 10000 nM | 602 nM
28 | CCN(CC)C(=O)c1ccc2c(=O)n(Cc3cccc(Br)c3)c(=S)[nH]c2c1 | 1020 nM | > 10000 nM | > 1250 nM
29 | COc1ccc(Nc2nc(NN=Cc3cccc(I)c3)nc(Nc3ccc([N+](=O)[O-])cc3)n2)cc1 | 454 nM | > 11700 nM | 305 nM
30 | C1=C(c2ccccc2)CCN(c2ncnc3c2nc2n3CCCCC2)C1 | 1080 nM | > 85800 nM | 1290 nM
31 | CCOC(=O)C1=C(C)NC2=C(C(=O)CC(C)(C)C2)C1c1ccc(Cl)cc1Cl (stereo not given) | 121 nM | 66000 nM | 281 nM
32 | Cc1cc(C)c(CSC(=N)N)c(C)c1CSC(=N)N | > 1140 nM | > 10000 nM | 1120 nM
33 | O=C1C2C(C(=O)N1c1ccc(Br)cc1)C1C=CC2C12CC2 (stereo not given) | 3980 nM | > 100000 nM | > 12500 nM
34 | CCCCNCCN1CCN(c2ccc3ccccc3c2)C[C@@H]1c1ccccc1 | 2.45 nM | 8160 nM | 34.5 nM
35 | COc1ccc(OC)c(-c2ccc(O)c(CNC3CCCCCCC3)c2)c1 | 952 nM | > 10000 nM | 767 nM
36 | Cc1ccc(-c2cc(C)[n+](C)c(-c3ccc(C)cc3)c2)cc1 | 763 nM | 7520 nM | 313 nM
37 | CN(C)CCCNc1ncnc2c1[nH]c1ccccc12 | 934 nM | > 100000 nM | 233 nM
38 | O=C(c1ccc([N+](=O)[O-])cc1)N1CCC(c2nc(O)c3nnn(Cc4c(F)cccc4Cl)c3n2)CC1 | 401 nM | > 100000 nM | 210 nM
39 | O=C1CC(c2ccc(O)cc2)C2=C(CC(c3ccccc3Cl)CC2=O)N1 (stereo not given) | 391 nM | > 100000 nM | 672 nM
40 | CCOC(=O)c1c(-c2ccccc2)oc2c1C(=O)c1ccccc1C2=O | 1350 nM | > 100000 nM | 1130 nM
41 | CCOC(=O)N1CCN(C(=O)c2ccc(N3CC4CC(C3)c3cccc(=O)n3C4)c(NS(=O)(=O)c3ccc4c(c3)OCCO4)c2)CC1 (stereo not given) | 589 nM | > 100000 nM | 2470 nM
42 | O=C(Nc1ccc(-n2cccn2)cc1)C1CCN(C/C=C/c2ccccc2)CC1 | 1540 nM | > 10000 nM | 464 nM
43 | COc1cc(C=C2CCC(=Cc3cc(OC)c(OC)c(OC)c3)C2=O)cc(OC)c1OC | 2750 nM | > 100000 nM | 2210 nM
44 | CCOC(=O)C1=C(C)NC2=C(C(=O)CC(c3ccc(OC)c(OC)c3)C2)C1c1cccc(Cl)c1Cl (stereo not given) | 30.5 nM | > 100000 nM | 32.9 nM
45 | COc1ccc(OCCNC(=O)c2ccccc2Cl)cc1 | > 380 nM | > 10000 nM | > 1250 nM
46 | Cc1ccc(NC(=S)NCCO)cc1C | 1020 nM | > 100000 nM | 1810 nM
47 | CCOC(=O)C1=C(C)NC2=C(C(=O)CC(c3ccc(Cl)cc3)C2)C1c1ccccc1Cl (stereo not given) | 40.8 nM | > 100000 nM | 44.2 nM
48 | O=C(NCc1ccccc1)c1cccc2c(Br)cccc12 | 1470 nM | > 10000 nM | > 1100 nM

Row | Structure (SMILES) | EC50 (Plasmodium falciparum [1]) | CC50 [2] | EC50 (Plasmodium falciparum [3])
49 | O=C(NN=Cc1cc2ccccc2cc1O)c1cccnc1 | 946 nM | > 10000 nM | 871 nM
50 | COc1ccc(OCCOCCN2CCN(C)CC2)cc1 | > 12500 nM | > 100000 nM | > 8080 nM
51 | c1ccc(-c2cc(N3CCOCC3)nc(-c3ccccn3)n2)nc1 | 372 nM | > 10000 nM | 907 nM
52 | CN(CCCNc1ccnc2cc(Cl)ccc12)C(=O)C(C)(C)C | 225 nM | > 10000 nM | 203 nM
53 | COc1ccccc1-n1c(C(C)N(C)C(=O)Nc2ccccc2F)nc2ccccc2c1=O (stereo not given) | 62.3 nM | > 12400 nM | 162 nM
54 | CCN(CC)Cc1cc(Nc2nc3ccccc3[nH]2)cc(CN(CC)CC)c1O | > 1250 nM | > 10000 nM | 864 nM
55 | O=C1NC(=S)N/C1=C/c1ccc(C(F)(F)F)cc1 | > 1110 nM | > 2880 nM | > 1030 nM
56 | CCOC(=O)c1ccc2nc(C)cc(Nc3ccc(N4CCCCC4)cc3)c2c1 | 634 nM | 21200 nM | 292 nM
57 | CC1(C)C2C[C@@H](COC(=O)NC(=O)c3ccccc3)[C@]3(C)[C@H](C21)C3(Cl)Cl (stereo not given in full) | 951 nM | > 11200 nM | 1140 nM
58 | CCCCc1ccc(C(=O)N(CCc2ccccc2)C(CC)c2nc3ccccc3c(=O)n2-c2ccccc2OC)cc1 (stereo not given) | 354 nM | > 6270 nM | 311 nM
59 | O=C(O)CC(c1ccc2c(c1)OCO2)N1CCS(=O)(=O)CC1 (stereo not given) | > 196 nM | > 10000 nM | > 1250 nM
60 | CCN(CC)c1ccc(NC(=O)c2cccs2)cc1 | 770 nM | > 100000 nM | 414 nM
61 | Cc1cccc(-c2nc3cc(NC(=S)NC(=O)c4ccc(Cl)cc4)ccc3o2)c1 | 183 nM | > 10000 nM | > 1660 nM
62 | COc1ccc(-n2c(COc3cccc4ccccc34)nnc2SC)cc1 | 236 nM | > 100000 nM | 524 nM
63 | BrC(Br)(Br)c1ncc(-c2ccccc2)cn1 | 143 nM | > 10000 nM | 43.3 nM
64 | Oc1c(C(Nc2ccccn2)c2cccc(Cl)c2Cl)ccc2cccnc12 (stereo not given) | 132 nM | > 100000 nM | 174 nM
65 | COc1ccc(C(=O)N2C(C(=O)Nc3ccccc3F)CSC2c2ccc(C(C)(C)C)cc2)cc1 (stereo not given) | 801 nM | > 3600 nM | 940 nM
66 | CN(c1ccc(Cl)cc1)S(=O)(=O)c1ccc2[nH]cc(C(=O)NCCC3=CCCCC3)c(=O)c2c1 | > 911 nM | > 10000 nM | > 1250 nM
67 | Cc1nc2ccccc2c(=O)n1NC(=O)c1cccc([N+](=O)[O-])c1 | 1610 nM | > 100000 nM | 141 nM
68 | CSc1ccc(Cl)c(Cl)c1 | 398 nM | 2350 nM | 83.9 nM
69 | CCCCCCCSc1c(O)c2ccc(Cl)cc2[nH]c1=O | 272 nM | > 10000 nM | 122 nM
70 | COCCCNC(=O)C=Cc1ccc(C(C)C)cc1 | 3580 nM | > 100000 nM | 5940 nM
